Experiments:
Plasmodium falciparum [1] = experiment: Antimalarial activity against chloroquine-resistant Plasmodium falciparum W2 after 72 hrs by parasite LDH assay; assay type: functional, organism-based; conditions: W2, 72 h
Plasmodium falciparum [2] = experiment: Antimalarial activity against chloroquine-sensitive Plasmodium falciparum D10 after 72 hrs by parasite LDH assay; assay type: functional, organism-based; conditions: D10, 72 h

Structure (SMILES) | IC50 (Plasmodium falciparum [1]) [µM] | IC50 (Plasmodium falciparum [2]) [µM]
C/C=C(C)/C=C/CCC[C@]1(OC)C[C@H](C)[C@H](CC(=O)OC)OO1 [MANADOPEROXIDE A] | 3.74 | 6.88
CC/C=C(C)/C=C/CCC[C@]1(OC)C[C@H](C)[C@H](CC(=O)OC)OO1 [MANADOPEROXIDE B] | 3.69 | 6.76
COC(=O)C[C@@H]1OO[C@@](CCC/C=C/C(C)=O)(OC)C[C@@H]1C [MANADOPEROXIDE C] | 2.33 | 4.54
COC(=O)C[C@@H]1OO[C@@](CCC[C@H](O)/C=C(\C)[C@H](C)O)(OC)C[C@@H]1C [MANADOPEROXIDE D] | 7.93 | 10.4
CC/C=C/[C@H](CC)C[C@@]1(C)C[C@@H](CC)[C@@H](CC(=O)OC)OO1 [PLAKORTIN] | 0.39 | 
